Assay results taken from patent US11020409B2, “Broad antiviral therapy with membrane modifying oxysterols” (priority 2012, dated 2021).

Tested on: VSV-GFP
Test: microbe, parasite or virus in culture
Type: cell-based, vesicular stomatitis virus

C[C@H](CCCC(C)(C)O)[C@H]1CC[C@H]2[C@@H]3CC=C4C[C@@H](O)CC[C@]4(C)[C@H]3CC[C@]12C [25HC, 25-hydroxycholesterol]
VSV infection in HEK293T overexpressing active forms of SREBP1-A, SREBP1-B, and SREBP2: inhibited VSV infection
